Data from ChEMBL document CHEMBL3758092, “Discovery and preclinical evaluation of potent, orally bioavailable, metabolically stable cyclopropylindolobenzazepine acylsulfonamides as thumb site 1 inhibitors of the hepatitis c virus NS5B RNA-dependent, RNA polymerase” (Bioorg Med Chem Lett, 2016).
pEC50, pIC50: −log10 of the molar value.

Key:
[1] = test system: Hepatitis C virus; experiment: Antiviral activity against HCV1b by replicon assay; assay type: functional, organism-based, Hepacivirus hominis; details: genotype 1b
[2] = test system: Hepatitis C virus; experiment: Antiviral activity against HCV1a by replicon assay; assay type: functional, organism-based, Hepacivirus hominis; details: subtype 1a
[3] = in vitro; details: rat, liver microsomes
Description: Metabolic stability in rat liver microsomes assessed as compound remaining after 10 mins

[4] = target: Voltage-gated inwardly rectifying potassium channel KCNH2 (Homo sapiens, UniProt Q12809); experiment: Inhibition of human ERG by FLIPR assay
Voltage-gated inwardly rectifying potassium channel KCNH2, sequence (Q12809 whole entry): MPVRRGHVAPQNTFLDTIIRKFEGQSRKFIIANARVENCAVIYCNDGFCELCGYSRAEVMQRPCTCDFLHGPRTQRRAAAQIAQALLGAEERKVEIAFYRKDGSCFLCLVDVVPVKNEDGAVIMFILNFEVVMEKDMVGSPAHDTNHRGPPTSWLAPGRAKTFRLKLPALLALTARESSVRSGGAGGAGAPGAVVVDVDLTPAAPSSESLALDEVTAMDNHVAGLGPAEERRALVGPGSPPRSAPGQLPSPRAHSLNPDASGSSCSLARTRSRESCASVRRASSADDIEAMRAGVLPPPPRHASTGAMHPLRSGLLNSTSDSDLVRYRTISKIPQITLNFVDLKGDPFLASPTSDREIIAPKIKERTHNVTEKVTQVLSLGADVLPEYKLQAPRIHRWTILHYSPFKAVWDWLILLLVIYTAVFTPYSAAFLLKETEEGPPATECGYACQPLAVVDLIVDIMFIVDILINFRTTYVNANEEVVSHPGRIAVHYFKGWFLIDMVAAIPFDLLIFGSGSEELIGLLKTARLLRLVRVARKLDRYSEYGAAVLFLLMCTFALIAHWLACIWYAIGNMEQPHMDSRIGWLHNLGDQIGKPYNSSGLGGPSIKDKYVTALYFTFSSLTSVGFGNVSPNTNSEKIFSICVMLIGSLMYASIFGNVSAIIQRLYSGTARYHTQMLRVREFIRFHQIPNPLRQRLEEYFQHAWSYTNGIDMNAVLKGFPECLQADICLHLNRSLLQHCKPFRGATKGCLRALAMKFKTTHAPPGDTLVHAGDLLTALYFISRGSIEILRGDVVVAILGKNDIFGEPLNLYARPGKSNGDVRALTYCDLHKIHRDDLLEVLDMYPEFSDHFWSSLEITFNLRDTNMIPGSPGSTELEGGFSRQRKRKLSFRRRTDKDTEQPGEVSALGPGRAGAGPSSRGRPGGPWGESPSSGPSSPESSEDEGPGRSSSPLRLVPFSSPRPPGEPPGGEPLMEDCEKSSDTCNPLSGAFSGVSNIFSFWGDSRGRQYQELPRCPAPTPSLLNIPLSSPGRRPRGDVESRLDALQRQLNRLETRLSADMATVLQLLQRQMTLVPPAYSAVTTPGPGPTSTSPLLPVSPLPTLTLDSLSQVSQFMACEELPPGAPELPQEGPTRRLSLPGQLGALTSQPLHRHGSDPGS

[5] = Ratio of drug level in liver to plasma in rat at 10 mg/kg, po after 6 hrs; assay type: ADME, organism-based
[6] = test system: Hepatitis C virus; experiment: Antiviral activity against HCV1b by replicon assay in presence of 40% human serum; assay type: functional, organism-based, Hepacivirus hominis; details: genotype 1b
[7] = Ratio of drug level in liver to plasma in rat at 10 mg/kg, po after 4 hrs; assay type: ADME, organism-based
[8] = Oral bioavailability in rat at 10 mg/kg; assay type: ADME, organism-based; details: in vivo
[9] = Ratio of drug level in liver to plasma in rat at 10 mg/kg, po after 24 hrs; assay type: ADME, organism-based
[10] = Half life in human liver microsomes; assay type: ADME
[11] = Half life in cynomolgus monkey liver microsomes; assay type: ADME, Macaca fascicularis
[12] = AUC (0 to 24 hrs) in rat at 10 mg/kg, po; assay type: ADME, organism-based; parameters: time < 24 hr, dose 10 mg/kg, route oral; details: in vivo
[13] = Oral bioavailability in dog at 3 mg/kg; assay type: ADME, organism-based, Canis lupus familiaris; details: in vivo
[14] = AUC (0 to 24 hrs) in cynomolgus monkey at 1 mg/kg, iv; assay type: ADME, organism-based, Macaca fascicularis; parameters: time < 24 hr, dose 1 mg/kg, route intravenous; details: in vivo
[15] = AUC (0 to 24 hrs) in cynomolgus monkey at 3 mg/kg, po; assay type: ADME, organism-based, Macaca fascicularis; parameters: dose 3 mg/kg, time < 24 hr, route oral; details: in vivo
[16] = AUC (0 to 24 hrs) in dog at 3 mg/kg, po; assay type: ADME, organism-based, Canis lupus familiaris; parameters: time < 24 hr, dose 3 mg/kg, route oral; details: in vivo
[17] = AUC (0 to 24 hrs) in rat at 5 mg/kg, iv; assay type: ADME, organism-based; parameters: dose 5 mg/kg, time < 24 hr, route intravenous; details: in vivo
[18] = Solubility in mid-range pH solutions; assay type: physicochemical
[19] = Ratio of drug level in liver to plasma in rat at 10 mg/kg, po after 48 hrs; assay type: ADME, organism-based
[20] = AUC (0 to 24 hrs) in dog at 1 mg/kg, iv; assay type: ADME, organism-based, Canis lupus familiaris; parameters: dose 1 mg/kg, time < 24 hr, route intravenous; details: in vivo
[21] = Oral bioavailability in cynomolgus monkey at 3 mg/kg; assay type: ADME, organism-based, Macaca fascicularis; details: in vivo
[22] = Drug uptake in rat at 10 mg/kg, po liver after 6 hrs; assay type: ADME, organism-based; details: read-out: Drug uptake
[23] = Clearance in rat at 10 mg/kg, po; assay type: ADME, organism-based; details: in vivo
[24] = test system: Liver; experiment: Drug uptake in rat at 10 mg/kg, po liver after 24 hrs; assay type: ADME, organism-based; details: in vivo, BLD = below limit of detection

Compound	pEC50 [1]	pEC50 [2]	Kp at 6 h [5]	bioavailability [8]	half-life [10]	half-life [11]	concentration at 6 h [22]	CL/F [23]	also measured
COc1ccc2c(c1)[C@H]1C[C@@]1(C(=O)N1C3CCC1CN(C)C3)Cn1c-2c(C2CCCCC2)c2ccc(C(=O)NS(=O)(=O)C(C)C)cc21	6.83	6.71	–	–	–	–	–	–	–
COc1ccc2c(c1)[C@@H]1C[C@]1(C(=O)N1[C@@H]3CC[C@H]1CN(C)C3)Cn1c-2c(C2CCCCC2)c2ccc(C(=O)NS(=O)(=O)N(C)C)cc21 [BECLABUVIR]	–	–	10	43%	45 min	–	–	–	remaining at 10 min [3]: 100%; pIC50 [4]: 4.59; pEC50 [6]: 7.40; Kp at 4 h [7]: 2; Kp at 24 h [9]: 10
CCC(C)S(=O)(=O)NC(=O)c1ccc2c(C3CCCCC3)c3n(c2c1)CC1(C(=O)N2C4CCC2CN(C)C4)CC1c1cc(OC)ccc1-3 (racemic)	7.43	7.82	–	–	18 min	38 min	–	–	–
COc1ccc2c(c1)[C@@H]1C[C@]1(C(=O)N1C3CCC1CN(C)C3)Cn1c-2c(C2CCCCC2)c2ccc(C(=O)NS(=O)(=O)C(C)C)cc21	–	8.15	20	65%	–	–	–	–	AUC(0-t) at 24 h [12]: 16 µM·h; bioavailability [13]: 100%; AUC(0-t) at 24 h [14]: 7 µM·h; pEC50 [6]: 7.70; AUC(0-t) at 24 h [15]: 5.4 µM·h; AUC(0-t) at 24 h [16]: 124 µM·h; AUC(0-t) at 24 h [17]: 18 µM·h; solubility [18]: soluble; Kp at 48 h [19]: 11; AUC(0-t) at 24 h [20]: 36 µM·h; bioavailability [21]: 25%
CCCS(=O)(=O)NC(=O)c1ccc2c(C3CCCCC3)c3n(c2c1)CC1(C(=O)N2C4CCC2CN(C)C4)CC1c1cc(OC)ccc1-3 (racemic)	7.68	8.10	120	–	112 min	37 min	13.1 µM	16.5 mL/min/kg	–
COc1ccc2c(c1)C1CC1(C(=O)N1C3CCC1CN(C)C3)Cn1c-2c(C2CCCCC2)c2ccc(C(=O)NS(=O)(=O)C3CCCC3)cc21 (racemic)	7.21	7.62	36	–	> 60 min	18.2 min	35.3 µM	7.7 mL/min/kg	–
COc1ccc2c(c1)[C@@H]1C[C@]1(C(=O)N1C3CCC1CN(C)C3)Cn1c-2c(C2CCCCC2)c2ccc(C(=O)NS(=O)(=O)CC(C)C)cc21	8.70	–	47	41%	> 72 min	24.4 min	–	–	remaining at 10 min [3]: 100%; pIC50 [4]: 4.78; pEC50 [6]: 7.10; Kp at 48 h [19]: 4
COc1ccc2c(c1)C1CC1(C(=O)N1C3CCC1CN(C)C3)Cn1c-2c(C2CCCCC2)c2ccc(C(=O)NS(=O)(=O)C(C)(C)C)cc21 (racemic)	7.64	8.10	–	12.4%	> 60 min	44 min	–	13.5 mL/min/kg	Drug uptake [24]: BLD
COc1ccc2c(c1)C1CC1(C(=O)N1C3CCC1CN(C)C3)Cn1c-2c(C2CCCCC2)c2ccc(C(=O)NS(=O)(=O)C(C)C)cc21 (racemic)	7.55	7.70	13	65%	–	–	26.2 µM	–	–
COc1ccc2c(c1)C1CC1(C(=O)N1C3CCC1CN(C)C3)Cn1c-2c(C2CCCCC2)c2ccc(C(=O)NS(C)(=O)=O)cc21 (racemic)	7.74	7.89	–	3.6%	179 min	80 min	–	54.4 mL/min/kg	Drug uptake [24]: BLD
COc1ccc2c(c1)C1CC1(C(=O)N1C3CCC1CN(C)C3)Cn1c-2c(C2CCCCC2)c2ccc(C(=O)NS(=O)(=O)CC(C)C)cc21 (racemic)	7.66	7.85	150	–	> 60 min	24.5 min	88.3 µM	9.2 mL/min/kg	–
